Laboratory results: US5008252A, “Process for inhibiting herpes simplex virus-specified thymidine kinase” (The University of North Carolina at Chapel Hill, priority 1987, dated 1991)

Test system: HSV-1 (strain KOS)-infected HeLa BU cells
Test: Virus yield assay
Assay type: cell-based
Conditions: for reversal of antiviral activity by 5'-Et-dThd: 100 μM 5'-Et-dThd, ACV 15 μM, DHPG 2 μM, FIAC 1 μM, BVDU 1 μM, 5'-NH2-dThd 500 μM; for % PFU with a 5'-Et-dThd conc. of 2.5 μM: drug (μM as in row; None = 5'-Et-dThd alone) plus 2.5 μM 5'-Et-dThd; for % PFU with a 5'-Et-dThd conc. of 25 μM: drug (μM as in row; None = 5'-Et-dThd alone) plus 25 μM 5'-Et-dThd; for % PFU with a 5'-Et-dThd conc. of 0 μM: drug alone, drug μM in parentheses in row: ACV 15, FIAC 1, DHPG 2, BVDU 1, 5'-NH2-dThd 500
Experimental: Cell and virus growth inhibition. Cell growth inhibition and the virus yield assay were performed in accordance with the protocol described by Cheng, Y.-C., Grill, S.P., Ruth, J. and Bergstrom, D. E. (Antimicrob. Agents Chemother. 18:957-961 (1980)) with the exceptions that all studies were done using 5% dialyzed fetal bovine serum; the multiplicity of infection was 3 PFU/cell and Vero cells were used instead of CV-1 cells for titration in the virus yield assays.

[1] = Table II, drug (μM as in row; None = 5'-Et-dThd alone) plus 100 μM 5'-Et-dThd

| Compound | reversal of antiviral activity by 5'-Et-dThd [fold] | % PFU with a 5'-Et-dThd conc. of 2.5 μM (Table II) [%] | % PFU with a 5'-Et-dThd conc. of 25 μM (Table II) [%] | % PFU with a 5'-Et-dThd conc. of 100 μM [1] [%] | % PFU with a 5'-Et-dThd conc. of 0 μM (Table II) [%] | % PFU with 100 μM 5'-Et-dThd relative to aphidicolin alone (0.2 μM aphidicolin plus 100 μM 5'-Et-dThd) | activity at 0.2 µM (Human alphaherpesvirus 1, HeLa, read-out: %PFU with a 5'-Et-dThd conc. of 0 μM) [%] | %PFU with a 5'-Et-dThd conc. of 5 μM (Table III, aphidicolin 0.2 μM (None = 5'-Et-dThd alone) plus 5 μM 5'-Et-dThd) [%] | %PFU with a 5'-Et-dThd conc. of 20 μM (Table III, aphidicolin 0.2 μM (None = 5'-Et-dThd alone) plus 20 μM 5'-Et-dThd) [%] | % PFU with a 5'-Et-dThd conc. of 100 μM (Table III, aphidicolin 0.2 μM (None = 5'-Et-dThd alone) plus 100 μM 5'-Et-dThd) [%] |
| --- | --- | --- | --- | --- | --- | --- | --- | --- | --- | --- |
| Cc1cn([C@H]2C[C@H](O)[C@@H](CN)O2)c(=O)[nH]c1=O [5'-NH2-dThd, 5'-amino-dThd] | 250 | 0.3 | 3 | 50 | 0.2 | – | – | – | – | – |
| Nc1nc2c(ncn2COCCO)c(=O)[nH]1 [ACV, acyclovir] | 35 | 9 | 45 | 70 | 2 | – | – | – | – | – |
| C[C@@]1(CO)[C@H](O)CC[C@@]2(C)[C@H]1CC[C@H]1C[C@@H]3C[C@@]12CC[C@]3(O)CO [Aphidicolin, aphidicolin] | – | – | – | – | – | less than one half | 54 | 65 | 45 | 21 |
| O=c1[nH]c(=O)n([C@H]2C[C@H](O)[C@@H](CO)O2)cc1/C=C/Br [BVDU, (E)-5-(2-bromovinyl)-2'-deoxyuridine] | 15 | 9.5 | 13 | – | 0.9 | – | – | – | – | – |
| Nc1nc2c(ncn2COC(CO)CO)c(=O)[nH]1 [DHPG, 9-(1,3-dihydroxy-2-propoxymethyl) guanine] | 100 | 0.2 | 4 | 10 | 0.1 | – | – | – | – | – |
| Nc1nc(=O)n([C@@H]2O[C@H](CO)[C@@H](O)[C@@H]2F)cc1I [FIAC, fluoroido-arabinosyl-cytosine] | 98 | 26 | 59 | – | 0.6 | – | – | – | – | – |
